Assay results: US9499519B2, “Fused pyrimidine compounds and use thereof” (Medivation Technologies, Inc., priority 2012, dated 2016)
Where two headings read alike, the source gives them in different places.

Experiments:
IR = biological target: T1, IR (Homo sapiens, UniProt P06213); experiment: In vitro IR enzymatic assay (ADP-Glo kinase assay); type: biochemical; settings: activated IR, 30 nM; for % Inh @ 30 nM (N1) / % Inh @ 30 nM (N2): 0.03 µM
T1 construct: purchased Millipore 14-803
Protocol: (§1) IC50 values of the compounds of the invention against IGF-1R and IR were measured in vitro using an ADP-Glo kinase assay Kit (Promega). […] Kinase reactions in both assays were conducted at 30° C. for 20 min with increasing concentrations of compounds of the invention.
Additional compounds of the invention were screened against activated IR.

IGF-1R = biological target: T2, IGF-1R (Homo sapiens, UniProt P08069); experiment: In vitro IGF-1R enzymatic assay (ADP-Glo kinase assay); type: biochemical; settings: activated IGF-1R, 30 nM; for % Inh @ 30 nM (N2) / % Inh @ 30 nM (N1): 0.03 µM
T2 construct: purchased Millipore 14-802
Protocol: as §1
Additional compounds of the invention were screened against activated IGF-1R.

[1] = test system: Akt phosphorylation induced by IGF-1R; experiment: Western blot analysis of Akt phosphorylation induced by IGF-1 in HT-29 cells; type: cell-based, Human; settings: for Levels of phosphorylated AKT in treated cells (pAKT/actin): HT-29 cells, IGF-1; for p-AKT relative to levels with 0.1 nM compound: Table B2 lower part; for Normalized phosphorylated AKT (relative to actin) levels relative to 0.1 nM compound treatment: Table B2 upper part
How it was run: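 Phospho-Akt assessed by western blot in serum-depleted (24 h) human colon carcinoma HT-29 cells. Compounds applied for 2 h at 0.1–100 (0.1, 1, 10, 100); vehicle DMSO and 10 ng/mL IGF-1 served as controls. Protein in cleared lysates measured by BCA assay.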

[2] = N1, read-out: % Inh @ 30 nM (N1)
[3] = N2, read-out: % Inh @ 30 nM (N2)
[4] = average, read-out: % Inh @ 30 nM Avg

T1 sequence (P06213 28-1382): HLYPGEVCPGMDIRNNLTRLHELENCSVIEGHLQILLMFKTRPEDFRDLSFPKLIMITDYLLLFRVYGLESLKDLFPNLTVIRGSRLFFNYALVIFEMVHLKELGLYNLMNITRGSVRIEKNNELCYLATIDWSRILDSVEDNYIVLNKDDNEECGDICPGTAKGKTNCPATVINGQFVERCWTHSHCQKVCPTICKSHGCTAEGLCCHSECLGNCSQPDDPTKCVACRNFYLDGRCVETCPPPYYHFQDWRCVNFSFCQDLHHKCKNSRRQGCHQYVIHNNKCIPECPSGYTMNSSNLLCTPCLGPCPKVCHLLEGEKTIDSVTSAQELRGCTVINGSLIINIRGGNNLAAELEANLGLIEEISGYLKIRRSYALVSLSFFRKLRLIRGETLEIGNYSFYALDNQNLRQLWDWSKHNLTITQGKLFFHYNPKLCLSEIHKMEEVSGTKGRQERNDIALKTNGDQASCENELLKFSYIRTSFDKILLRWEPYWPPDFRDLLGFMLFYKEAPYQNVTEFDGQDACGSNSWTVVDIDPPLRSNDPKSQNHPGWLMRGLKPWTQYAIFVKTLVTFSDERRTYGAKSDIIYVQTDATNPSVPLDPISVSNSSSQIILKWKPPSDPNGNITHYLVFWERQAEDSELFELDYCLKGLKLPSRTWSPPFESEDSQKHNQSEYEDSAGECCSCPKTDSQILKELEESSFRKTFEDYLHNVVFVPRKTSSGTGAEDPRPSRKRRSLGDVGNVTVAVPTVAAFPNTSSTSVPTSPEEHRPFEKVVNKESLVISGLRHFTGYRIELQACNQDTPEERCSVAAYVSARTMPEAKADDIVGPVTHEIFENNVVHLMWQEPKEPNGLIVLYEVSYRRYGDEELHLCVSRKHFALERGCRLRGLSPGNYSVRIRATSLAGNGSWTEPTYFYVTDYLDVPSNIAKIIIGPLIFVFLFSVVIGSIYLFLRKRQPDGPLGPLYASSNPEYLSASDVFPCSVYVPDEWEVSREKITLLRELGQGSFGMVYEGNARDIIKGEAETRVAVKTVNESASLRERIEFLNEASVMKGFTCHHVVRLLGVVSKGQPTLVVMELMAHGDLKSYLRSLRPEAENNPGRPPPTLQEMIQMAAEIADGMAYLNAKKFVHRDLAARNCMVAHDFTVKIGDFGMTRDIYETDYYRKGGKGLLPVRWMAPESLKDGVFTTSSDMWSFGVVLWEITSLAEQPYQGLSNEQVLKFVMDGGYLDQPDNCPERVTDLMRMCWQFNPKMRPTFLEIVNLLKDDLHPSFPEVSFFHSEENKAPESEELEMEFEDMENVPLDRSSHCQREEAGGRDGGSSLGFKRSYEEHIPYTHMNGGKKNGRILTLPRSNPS
T2 sequence (P08069 31-1367): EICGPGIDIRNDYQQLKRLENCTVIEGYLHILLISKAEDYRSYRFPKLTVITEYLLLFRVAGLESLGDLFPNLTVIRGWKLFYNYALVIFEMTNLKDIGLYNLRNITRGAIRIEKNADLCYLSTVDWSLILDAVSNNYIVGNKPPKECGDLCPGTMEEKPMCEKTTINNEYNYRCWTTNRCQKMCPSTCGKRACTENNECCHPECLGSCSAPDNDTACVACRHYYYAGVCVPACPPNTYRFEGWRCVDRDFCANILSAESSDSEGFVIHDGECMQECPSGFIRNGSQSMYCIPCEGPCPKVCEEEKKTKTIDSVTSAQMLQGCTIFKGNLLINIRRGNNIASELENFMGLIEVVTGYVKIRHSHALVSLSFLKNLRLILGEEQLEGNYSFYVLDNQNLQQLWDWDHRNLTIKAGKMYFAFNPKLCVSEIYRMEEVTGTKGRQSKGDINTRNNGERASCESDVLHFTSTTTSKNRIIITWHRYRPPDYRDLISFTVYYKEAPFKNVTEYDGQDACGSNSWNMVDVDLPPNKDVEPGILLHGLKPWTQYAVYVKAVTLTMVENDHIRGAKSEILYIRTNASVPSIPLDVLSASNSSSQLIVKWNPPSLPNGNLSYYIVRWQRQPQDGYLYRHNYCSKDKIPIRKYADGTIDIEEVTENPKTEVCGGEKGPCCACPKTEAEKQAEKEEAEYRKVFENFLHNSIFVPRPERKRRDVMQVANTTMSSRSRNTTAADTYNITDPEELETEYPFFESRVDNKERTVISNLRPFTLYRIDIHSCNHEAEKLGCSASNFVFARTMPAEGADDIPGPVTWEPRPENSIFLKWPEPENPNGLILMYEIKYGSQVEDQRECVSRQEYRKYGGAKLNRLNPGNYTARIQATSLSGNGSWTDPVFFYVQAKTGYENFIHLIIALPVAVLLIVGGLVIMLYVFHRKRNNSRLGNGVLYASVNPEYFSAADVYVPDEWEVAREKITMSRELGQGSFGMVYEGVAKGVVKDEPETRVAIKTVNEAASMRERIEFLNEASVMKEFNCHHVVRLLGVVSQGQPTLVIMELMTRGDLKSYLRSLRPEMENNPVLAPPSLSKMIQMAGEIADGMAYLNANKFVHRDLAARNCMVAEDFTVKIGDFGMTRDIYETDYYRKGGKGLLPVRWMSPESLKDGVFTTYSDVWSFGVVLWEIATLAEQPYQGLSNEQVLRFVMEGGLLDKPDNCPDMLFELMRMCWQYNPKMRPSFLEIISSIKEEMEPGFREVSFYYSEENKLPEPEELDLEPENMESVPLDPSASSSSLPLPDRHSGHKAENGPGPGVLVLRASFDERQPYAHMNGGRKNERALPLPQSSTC

Compound	% Inh @ 30 nM (N1) (IR; N1) [%]	% Inh @ 30 nM (N2) (IR; N2) [%]	% Inh @ 30 nM Avg (IR; average) [%]	% Inh @ 30 nM (N2) (IGF-1R; N2) [%]	Levels of phosphorylated AKT in treated cells (pAKT/actin) ([1]; 0.1 nM compound)	p-AKT relative to levels with 0.1 nM compound ([1]; 0.1 nM)	Normalized phosphorylated AKT (relative to actin) levels relative to 0.1 nM compound treatment ([1]; 0.1 nM)	Levels of phosphorylated AKT in treated cells (pAKT/actin) ([1]; 1 nM compound)	p-AKT relative to levels with 0.1 nM compound ([1]; 1 nM)	Normalized phosphorylated AKT (relative to actin) levels relative to 0.1 nM compound treatment ([1]; 1 nM)	Levels of phosphorylated AKT in treated cells (pAKT/actin) ([1]; 10 nM compound)	p-AKT relative to levels with 0.1 nM compound ([1]; 10 nM)	Normalized phosphorylated AKT (relative to actin) levels relative to 0.1 nM compound treatment ([1]; 10 nM)	Levels of phosphorylated AKT in treated cells (pAKT/actin) ([1]; 100 nM compound)	p-AKT relative to levels with 0.1 nM compound ([1]; 100 nM)	Normalized phosphorylated AKT (relative to actin) levels relative to 0.1 nM compound treatment ([1]; 100 nM)	% Inh @ 30 nM (N1) (IGF-1R; N1) [%]	% Inh @ 30 nM Avg (IGF-1R; average) [%]	further results
CC(C)c1cc(Nc2nc(N3CCCCC3C(=O)Nc3ccc(F)nc3)nc3c2CCC3)n[nH]1 (single isomer, unassigned) [Compound 16a, N-(6-fluoropyridin-3-yl)-1-(4-(5-isopropyl-1H-pyrazol-3-ylamino)-6,7-dihydro-5H-cyclopenta[d]pyrimidin-2-yl)piperidine-2-carboxamide]	1	−7	−3	15	0.82	1.0	1.0	0.62	0.8	0.8	0.61	0.7	0.7	0.30	0.4	0.4			
O=C(Nc1cnccn1)C1CCCN1c1nc2c(c(Nc3cc(C4CC4)[nH]n3)n1)CCC2 (single isomer, unassigned) [Compound 6a, 1-(4-(3-cyclopropyl-1H-pyrazol-5-ylamino)-6,7-dihydro-5H-cyclopenta[d]pyrimidin-2-yl)-N-(pyrazin-2-yl)pyrrolidine-2-carboxamide]					1.85	1.0	1.0	1.74	0.9	0.9	1.40	0.8	0.8	1.17	0.6	0.6			inhibition at 0.03 µM (IR; [2]): -13%; inhibition at 0.03 µM (IR; [3]): 9%; inhibition at 0.03 µM (IR; [4]): -2%; inhibition at 0.03 µM (IGF-1R; [2]): 22%; inhibition at 0.03 µM (IGF-1R; [3]): 33%; inhibition at 0.03 µM (IGF-1R; [4]): 28%
O=C(Nc1ccc(F)nc1)C1CCCN1c1nc2c(c(Nc3cc(C4CCCC4)[nH]n3)n1)CCCC2 (single isomer, unassigned) [Compound 15b, 1-(4-(5-cyclopentyl-1H-pyrazol-3-ylamino)-5,6,7,8-tetrahydroquinazolin-2-yl)-N-(6-fluoropyridin-3-yl)pyrrolidine-2-carboxamide]	28	31	30	28	0.52	1.0	1.0	0.58	1.1	1.1	0.43	0.8	0.8	0.13	0.3	0.3	32	30	
O=C(Nc1ccc(F)nc1)C1CCCN1c1nc2c(c(Nc3cc(C4CCCC4)[nH]n3)n1)CCC2 (single isomer, unassigned) [Compound 4a, 1-(4-(3-cyclopentyl-1H-pyrazol-5-ylamino)-6,7-dihydro-5H-cyclopenta[d]pyrimidin-2-yl)-N-(6-fluoropyridin-3-yl)pyrrolidine-2-carboxamide]	−14	−2	−8	17	2.38	1.0	1.0	1.64	0.7	0.7	1.76	0.7	0.7	1.47	0.6	0.6	4	10	
O=C(Nc1ccc(F)nc1)C1CCCN1c1nc2c(c(Nc3cc(C4CCCC4)[nH]n3)n1)CCC2 (single isomer, unassigned) [Compound 4b, 1-(4-(3-cyclopentyl-1H-pyrazol-5-ylamino)-6,7-dihydro-5H-cyclopenta[d]pyrimidin-2-yl)-N-(6-fluoropyridin-3-yl)pyrrolidine-2-carboxamide]	41	33	37	35	1.81	1.0	1.0	1.92	1.1	1.1	1.64	0.9	0.9	0.20	0.1	0.1	22	28	
